This note sets out measurements from PubChem BioAssay (NCI).

SMILES strings stand for the structures. Values joined by “and” are separate entries in the source; they are usually repeats but may differ in a detail not shown here. Equal entries are not always repeated.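 1) Cells in 96-well plates. 2) Compound, 48 h, 5 concentrations. 3) Linear interpolation between surrounding doses. 4) Unreached endpoint = highest concentration. Here, GI50 denotes the concentration required for 50% inhibition of growth. TGI: concentration producing complete growth inhibition.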

Test systems include OVCAR-5 ovarian; MOLT-4 leukemia; T-47D breast; SF-295 CNS; NCI-H460 lung; HCC-2998 colon; MDA-MB-231 breast; OVCAR-4 ovarian; HOP-62 NSCLC; SK-MEL-5 melanoma.
Experiment in all cases: growth of human tumour cells (NCI), 48 h

`COc1cc2c[n+](C)c3c4cc(OC)c(OC)cc4ccc3c2cc1OC`: the TGI with OVCAR-5 ovarian, in the assay on MOLT-4 leukemia, in the assay with T-47D breast, with SF-295 CNS, in the assay on NCI-H460 lung and in the assay with HCC-2998 colon was greater than 100 µM throughout. Further, the TGI in the assay with MDA-MB-231 breast, in the assay with OVCAR-4 ovarian, in the assay with HOP-62 NSCLC and in the assay on SK-MEL-5 melanoma was greater than 100 µM each time. The GI50 in the assay with T-47D breast was > 100 µM and 10.1 µM; with NCI-H460 lung it was > 100 µM and 49.8 µM; in the assay with MDA-MB-231 breast, > 100 µM and 18.6 µM.
For `O=c1c2c(F)c(F)c(F)c(F)c2sc2nccn12`, the TGI is 36.3 µM with OVCAR-5 ovarian; 9.62 µM with MOLT-4 leukemia; 24.2 µM in the assay with T-47D breast; 36.3 µM with SF-295 CNS; 27.3 µM in the assay with NCI-H460 lung; 31.9 µM in the assay with HCC-2998 colon. The TGI came out at 35.9 µM in the assay with MDA-MB-231 breast, 35.8 µM in the assay on OVCAR-4 ovarian, 42.3 µM with HOP-62 NSCLC and 35.8 µM in the assay on SK-MEL-5 melanoma.
For `CCCCOC(=O)c1cc(C(=CCC[C@H]2CC[C@@]3(C)[C@@H](CC[C@@H]4[C@@H]3CC[C@]3(C)[C@@H](C(C)CCCC(C)C)CC[C@@H]43)C2)c2cc(Cl)c(O)c(C(=O)OCCCC)c2)cc(Cl)c1O` (stereo not given in full), the TGI was greater than 5 µM in the assay with MOLT-4 leukemia; greater than 50 µM with T-47D breast; greater than 50 µM with NCI-H460 lung; greater than 50 µM in the assay on HCC-2998 colon; greater than 50 µM in the assay with MDA-MB-231 breast; greater than 50 µM with OVCAR-4 ovarian. In addition, the TGI in the assay on HOP-62 NSCLC and with SK-MEL-5 melanoma was greater than 50 µM throughout.
As for `O=C(N/N=C/C=C/c1ccc([N+](=O)[O-])o1)c1ccc(C(=O)N/N=C/C=C/c2ccc([N+](=O)[O-])o2)cc1`, the TGI in the assay with OVCAR-5 ovarian was greater than 100 µM; with MOLT-4 leukemia, greater than 43.6 µM; in the assay on T-47D breast, greater than 69.2 µM; in the assay on SF-295 CNS it was greater than 100 µM; with NCI-H460 lung it was greater than 88.5 µM; in the assay on HCC-2998 colon, greater than 28.5 µM. Also, the TGI in the assay with MDA-MB-231 breast was 97.3 µM; in the assay on OVCAR-4 ovarian it was greater than 100 µM; in the assay on HOP-62 NSCLC it was greater than 100 µM; with SK-MEL-5 melanoma it was 99.7 µM.
Take `c1ccc([P+](CCCCCC[P+](c2ccccc2)(c2ccccc2)c2ccccc2)(c2ccccc2)c2ccccc2)cc1`: the TGI in the assay on OVCAR-5 ovarian, with MOLT-4 leukemia, in the assay on T-47D breast, with SF-295 CNS, in the assay with NCI-H460 lung and in the assay on HCC-2998 colon was greater than 100 µM in each case. In addition, the TGI with MDA-MB-231 breast, in the assay on OVCAR-4 ovarian and in the assay on HOP-62 NSCLC was greater than 100 µM throughout.
Take `O=c1oc2ccc3ccccc3c2cc1-c1nc2ccc([N+](=O)[O-])cc2o1`: the TGI with OVCAR-5 ovarian was greater than 100 µM; in the assay with MOLT-4 leukemia it was greater than 100 µM; in the assay with T-47D breast, greater than 100 µM; with SF-295 CNS it was greater than 49.5 µM; in the assay with NCI-H460 lung, greater than 100 µM; in the assay with HCC-2998 colon, greater than 100 µM. In addition, the TGI in the assay on MDA-MB-231 breast is greater than 100 µM; in the assay on OVCAR-4 ovarian, greater than 100 µM; with HOP-62 NSCLC, greater than 45.2 µM; in the assay with SK-MEL-5 melanoma, greater than 100 µM.
As for `CCCNC(=O)N1CC(CN2CCN(c3ccccc3)CC2)O/C1=N/C(=O)Nc1ccccc1` (stereo not given), the TGI in the assay on OVCAR-5 ovarian, with MOLT-4 leukemia, with T-47D breast, in the assay with SF-295 CNS, with NCI-H460 lung and in the assay on HCC-2998 colon was greater than 100 µM in each case. For the same compound, the TGI was greater than 100 µM in the assay with MDA-MB-231 breast, greater than 100 µM with OVCAR-4 ovarian, greater than 100 µM in the assay with HOP-62 NSCLC and 94.1 µM with SK-MEL-5 melanoma.
`COC(=O)C1=NN2c3ccccc3CN([C@@H](C)c3ccccc3)C(=O)[C@@H]2[C@H]1c1ccccc1`: the TGI in the assay on OVCAR-5 ovarian, in the assay with MOLT-4 leukemia, with T-47D breast, in the assay with SF-295 CNS, with NCI-H460 lung and in the assay on HCC-2998 colon was greater than 100 µM in each case. The TGI with MDA-MB-231 breast, with OVCAR-4 ovarian, in the assay on HOP-62 NSCLC and with SK-MEL-5 melanoma was greater than 100 µM throughout.
Take `CC[C@@]1(CCC(=O)NCCc2c[nH]c3ccccc23)CCC(=O)N2CCc3c([nH]c4ccccc34)[C@H]21`: the TGI in the assay with OVCAR-5 ovarian was greater than 100 µM; in the assay with MOLT-4 leukemia it was 34.4 µM; in the assay on T-47D breast, greater than 100 µM; with SF-295 CNS, 60.6 µM; with NCI-H460 lung it was greater than 100 µM; in the assay on HCC-2998 colon it was 46.7 µM. The TGI in the assay with MDA-MB-231 breast, with OVCAR-4 ovarian, in the assay on HOP-62 NSCLC and in the assay with SK-MEL-5 melanoma was greater than 100 µM throughout.
Regarding `COC1C(O)C(C)OC(OC2CCC3(C)C(CCC4C3C(O)CC3(C)C(C5=CC(=O)OC5)CCC43O)C2)C1O` (stereo not given), the TGI with OVCAR-5 ovarian amounted to 1.77 µM; in the assay with MOLT-4 leukemia, 0.174 µM; in the assay on T-47D breast, 2.59 µM; with SF-295 CNS it was 1.23 µM; in the assay on NCI-H460 lung, 0.777 µM; in the assay on HCC-2998 colon it was 4.91 µM. Further, the TGI in the assay on MDA-MB-231 breast was 24.4 µM; in the assay with HOP-62 NSCLC, 0.473 µM; with SK-MEL-5 melanoma, 0.501 µM.
Consider `Cc1ccc(N2C(N)=C(C#N)C(C#N)(C#N)C2c2ccccc2)cc1` (stereo not given), for which the TGI came out at 32.4 µM in the assay on OVCAR-5 ovarian; 8.27 µM in the assay on MOLT-4 leukemia; 21.4 µM with T-47D breast; 60.3 µM in the assay with SF-295 CNS; 25.8 µM in the assay on HCC-2998 colon; 25.3 µM in the assay with MDA-MB-231 breast. In addition, the TGI in the assay with OVCAR-4 ovarian is 26.9 µM; with HOP-62 NSCLC it was 36.9 µM; in the assay on SK-MEL-5 melanoma, 20.9 µM.
For `O=C1c2ccccc2C(=O)N1CC(CN1C(=O)c2ccccc2C1=O)(C(=O)OCc1ccccc1)C(=O)OCc1ccccc1`, the TGI in the assay on OVCAR-5 ovarian, with MOLT-4 leukemia, in the assay on T-47D breast, in the assay on SF-295 CNS, with NCI-H460 lung and in the assay on HCC-2998 colon was greater than 100 µM throughout. Further, the TGI in the assay with MDA-MB-231 breast, with HOP-62 NSCLC and with SK-MEL-5 melanoma was greater than 100 µM in each case.
Take `CCCNC(=O)N(C)C(=O)N1N=C(c2ccccc2)C1c1ccccc1` (stereo not given): the TGI in the assay on MOLT-4 leukemia, in the assay with T-47D breast, with SF-295 CNS, with HCC-2998 colon, with MDA-MB-231 breast and in the assay on OVCAR-4 ovarian was greater than 100 µM throughout. For the same compound, the TGI in the assay with HOP-62 NSCLC and in the assay with SK-MEL-5 melanoma was greater than 100 µM each time.
